Data: US9777106B2, “Bisphenol polymer precursor replacements” (CASE WESTERN RESERVE UNIVERSITY, priority 2013, dated 2017)

Legend:
[1] = system: mouse embryonic stem cell line (endothelial differentiation reporter); assay: Endothelial differentiation assay in reporter mouse embryonic stem cell line (green fluorescent protein readout); format: cell-based; conditions: FIG. 1; for effect on estrogen receptor function: reporter cell line; for effect on cell (endothelial) differentiation: reporter mouse embryonic stem cell line, cells differentiated after incubation
Excerpt: Bisphenols have come under increasing scrutiny due to their capacity to mimic estrogen in biological systems, resulting in numerous health complications. Specifically these effects have been observed in endothelial cell differentiation. Bredhult et al., “Gene expression analysis of human endometrial endothelial cells exposed to Bisphenol A,” Reproductive toxicology (Elmsford, N.Y 28, 18-25 (2009). Long et al., Experimental biology and medicine, 226, 477-483 (2001). Accordingly, experiments have been carried out to evaluate the cytotoxicity and differentiation effect of a biologically derived bisphenol polymer precursor replacement. Resveratrol and bisphenol A were incubated with mouse embryonic stem cells and evaluated for cytotoxicity and apoptosis. Cells were then differentiated and evaluated for effect on endothelial differentiation. […] Further studies are planned to test further stages of resveratrol epoxidization. The inventor's lab has developed a mouse embryonic stem cell line capable of providing a quantitative readout of endothelial differentiation due to expression of a green fluorescent protein. Using these and similar cell lines we have been able to assay the effect of new molecules on cell proliferation, death, apoptosis, and endothelial differentiation. Robilotto et al., Dalton Transactions, 40(32): 8083-5 (2011). This cell line will be used to determine the biological effect of the newly proposed polymers as compared to the effect of benchmark controls. Protocols similar to those previously published can be used to determine the biocompatibility of the new polymers as compared to that of benchmark resin, evaluating the capacity of mouse embryonic stem cells to proliferate, their rate of cell death by toxicity or apoptosis, and their capacity to differentiate into […]. Kim et al., Tissue engineering, 15, 3709-3718 (2009); Kim et al., Tissue engineering, 16, 1065-1074 (2010).

[2] = system: mouse embryonic stem cells; assay: Cytotoxicity and apoptosis assay (annexin-V / 7-AAD) in mouse embryonic stem cells; format: cell-based; conditions: incubated with mouse embryonic stem cells; FIG. 1
Excerpt: Bisphenols have come under increasing scrutiny due to their capacity to mimic estrogen in biological systems, resulting in numerous health complications. Specifically these effects have been observed in endothelial cell differentiation. Bredhult et al., “Gene expression analysis of human endometrial endothelial cells exposed to Bisphenol A,” Reproductive toxicology (Elmsford, N.Y 28, 18-25 (2009). Long et al., Experimental biology and medicine, 226, 477-483 (2001). Accordingly, experiments have been carried out to evaluate the cytotoxicity and differentiation effect of a biologically derived bisphenol polymer precursor replacement. Resveratrol and bisphenol A were incubated with mouse embryonic stem cells and evaluated for cytotoxicity and apoptosis. Cells were then differentiated and evaluated for effect on endothelial differentiation. […]
The procedure for testing toxicity was and can be carried out as follows. […] 100,000 E14 cells were added to a 10 cm plate, covered with 1, 10 and 100 mg of polymer sample, and incubated for 48 hours followed by application of the MTT dye solutions and measurement of absorbance at 570 nm.
The number of apoptotic cells are quantified using an annexin-V apoptosis staining kit with 7-Amino-actinomycin D (7-AAD) vital stain (AnnexinV—PE Apoptosis Detection Kit; BD Biosciences Pharmingen, San Diego, Calif.). […]

Compound | effect on estrogen receptor function [1] | effect on cell (endothelial) differentiation [1] | over toxicity using the apoptosis assay [2] | effect on estrogen receptor function ([1]; listed as BPA) | effect on cell (endothelial) differentiation ([1]; listed as BPA)
Oc1ccc(C=Cc2cc(O)cc(O)c2)cc1 [Resveratrol, resveratrol] | little to no impact on estrogen receptor function | comparable to negative controls | relatively indistinguishable | – | –
CC(C)(c1ccc(O)cc1)c1ccc(O)cc1 [bisphenol A] | clearly interferes with estrogen receptor function | negatively effects cell differentiation | relatively indistinguishable | interferes estrogen receptor function | negatively impacts cell differentiation
